Measured values reported in patent EP3338775B1, “USE OF BUTYLIDENEPHTHALIDE” (Everfront Biotech Inc., priority 2015, dated 2017).
“And” between values parts separate entries of the source, which are not always exact repeats. Identical values can stand only once.

Key:
Assay type in all cases: cell-based
[1] = system: pcDNA3.0-neo brain CSCs ^CD133+; test: Wound healing assay with pcDNA3.0-neo brain CSCs CD133+; settings: without Axl overexpression; BP 0, 25, 50, 62.5, 75 and 100 µg/ml for 24 hours; Figure 14C
Procedure: In this research, to further investigate whether the capability of BP in inhibiting the metastasis of cancer stem cells is related to Axl, brain CSCs ^CD133+ was transfected with pcDNA3.0-Axl plasmid and pcDNA3.0-neo plasmid respectively by using Lipofectmine 2000 transfection reagent. Then, the transfected brain CSCs ^CD133+ and un-transfected brain CSCs ^CD133+ were selected by 200 to 600 µg/ml G418 at the same time to obtain brain CSCs ^CD133+ having pcDNA3.0-Axl plasmid (hereinafter referred to as "pcDNA 3.0-Axl brain CSCs ^CD133+") or brain CSCs ^CD133+ having pcDNA3.0-neo plasmid (hereinafter referred to as "pcDNA3.0-neo brain CSCs ^CD133+"). Both pcDNA 3.0-Axl brain CSCs ^CD133+ and pcDNA3.0-neo brain CSCs ^CD133+ were observed and photographed with the use of a microscope. Then, proteins were extracted from both cells to conduct Western blotting to determine the expressions of Axl protein and β-actin in the BP-treated brain CSCs ^CD133+. Yet another, pcDNA 3.0-Axl brain CSCs ^CD133+ and pcDNA3.0-neo brain CSCs ^CD133+ were treated with different concentrations (0, 25, 50, 62.5, 75 and 100 µg/ml) of BP for 24 hours. At the same time, the phenomenon of pcDNA 3.0-Axl brain CSCs ^CD133+ and pcDNA3.0-neo brain CSCs ^CD133+ migrate to the wound was observed and photographed at 0 and 24 hours during the BP treatment.

[2] = system: HNC-TIC-like oral stem cells (ALDH1^+CD44^+-1 cell line or ALDH1^+CD44^+-2 cell line); test: Transwell invasion assay with HNC-TIC-like oral stem cells; settings: BP 0, 25 and 50 µg/ml for 24 hours
From the text: In this research, the effect of BP on inhibiting the migration and invasion of cancer stem cells was further investigated by a transwell invasion assay system (i.e., Transwell^○,R system, purchased from Corning, UK) with a polycarbonate filter membrane of 8-µm pore size (purchased from Coming, UK). First, the polycarbonate filter membrane was coated with Matrigel™ (purchased from BD Pharmingen, USA), and then, the coated membrane was placed in the lower chamber of the transwell invasion assay system. Then, the lower chamber was filled with 10% serum-containing medium. On the other hand, HNC-TIC-like oral stem cells (i.e., ALDH1^+CD44^+-1 cell line or ALDH1^+CD44^+-2 cell line) were treated with different concentrations (0, 25 and 50 µg/ml) of BP for 24 hours, and then, the treated cells of each group was cultured in the upper chamber which was filled with serum-free medium, at a cell density of 1×10^5 cells/100 µl for 24 hours. […] The invasion cancer cells of each group were counted and photographed over five visual fields of the membrane with the use of a 100-fold magnification under a microscope. The relative invasion ability of cells of each experimental group was calculated based on the result of the group treated with 0 µg/ml of BP.

[3] = system: HNC-TIC-like oral stem cells (ALDH1^+CD44^+-1 cell line or ALDH1^+CD44^+-2 cell line); test: Soft agar colony formation assay with HNC-TIC-like oral stem cells; settings: BP 0, 25 and 50 µg/ml for 24 hours
Procedure: In this research, a soft agar colony formation assay was used to investigate the effect of BP on inhibiting the tumor initiating activity of cancer stem cells. First, HNC-TIC-like oral stem cells (i.e., ALDH1^+CD44^+-1 cell line or ALDH1^+CD44^+-2 cell line) were treated with different concentrations (0, 25 and 50 µg/ml) of BP for 24 hours, and then, the treated cells of each group was separately seeded in the top agar [containing DMEM (Dulbecco's Modified Eagle's Medium medium), 10 % (v/v) Fetal Calf Serum (FCS) and 0.3 % (w/v) agar] (purchased from Sigma-Aldrich) at an initial cell number of 2×10^4. On the other hand, a six-well culture dish was coated with the bottom agar [containing DMEM, 10 % (v/v) FCS and 0.6 % (w/v) agar] (purchased from Sigma-Aldrich), 2 ml for each well. After the bottom agar was solidified, each group of the top agar (containing oral cancer stem cells) was respectively added onto the bottom agar in different wells of the dish, 2 ml for each well. […] Lastly, the bottom agar was stained with 0.005 % crystal violet, the number of colonies (with a diameter ≥100 µm) was counted over five fields per well with the use of a microscope, and those fields were photographed. The relative colony-forming ability of cells of each experimental group was calculated based on the result of the group treated with 0 µg/ml of BP.

EZH2 = test: Western blotting of EZH2 protein in brain CSCs CD133+; settings: BP 0, 12.5, 25, 50, 62.5 and 75 µg/ml; Figure 3
Procedure: It has been known that EZH2 (enhancer of zeste homolog 2) gene is a critical growth related factor of cancer stem cells, and it will affect the growth and growth characteristics of cancer stem cells. Brain CSCs ^CD133+ was treated with different concentrations (0, 12.5, 25, 50, 62.5 and 75 µg/ml) of BP, and then, proteins were extracted from the cells to conduct Western blotting to determine the expression of EZH2 protein in the BP-treated brain CSCs ^CD133+.

[4] = system: malignant glioma DBTRG cells; test: MTT cell viability assay on malignant glioma DBTRG cells; settings: 24-hour group
Procedure: Thereafter, a cell viability assay, MTT assay, was utilized to analyze the viabilities of brain CSCs ^CD133+ and malignant glioma DBTRG cells. […] The results are shown in Figure 1A and Figure 1B for 24-hour group and 48-hour group (i.e., the treatment for 24 hours and 48 hours) and in Table 1 for 24-hour group.

With CCCC=C1OC(=O)c2ccccc21 [BP, butylidenephthalide] the “number of pcDNA3.0-neo brain CSCs ^CD133+ migrated to the wound” value [1] was “significantly decreased”, the “number of cells on the polycarbonate filter membrane” value ([2]; Figure 11A) was “significantly reduced” and the “relative invasion ability of cancer stem cells” value ([2]; relative to 0 µg/ml group, Figure 11B) was “decreased along with the increment in the concentration of BP”. For the same compound, the “number of colonies in the bottom agar” value ([3]; 4 weeks culture, Figure 15A) was “significantly decreased”, the “relative colony-forming ability of cancer stem cells” value ([3]; relative to 0 µg/ml group, Figure 15B) was “decreased along with the increment in the concentration of BP” and the “expression of EZH2 protein in brain CSCs ^CD133+” value (EZH2) was “significantly decreased”. The IC50 [4] was 400 µM and 75.3 µg/mL.
